Source: US20180360799A1, “Nitrofuran Derivatives That Induce Apoptosis in Breast Cancer Cells by Activating Protein Expression” (Oklahoma Medical Research Foundation, priority 2015, published 2018)

What was measured:
HCC-38 cells = experiment: Cell viability, CellTiter-Glo, HCC-38; type: cell-based; conditions: Homo sapiens, HCC38; 0.125 μM to 20 μM, CellTiter-Glo; read-out: IC50 cell viability HCC-38
Protocol: (§1) Given the known functions of CHOP in ER stress-induced apoptosis^16, 17 and in regulating cancer cell death,^6, 19, 20 the inventor investigated whether compound 1 affects the viability of TNBC cells. Three human TNBC cell lines, HCC-1806, HCC-1143, and HCC-38, were treated with doses of 1 ranging from 0.125 μM to 20 μM and their viability was assessed using the CellTiter-Glo assay, which measures intracellular ATP levels.
(§2) HCC-1806, HCC-1143, or HCC-38 cells were seeded at 3×10^3 cells/well in a 384-well plate and treated with compounds at the indicated concentrations. After 3 d treatment, the medium was aspirated and 20 μL/well of CellTiter-Glo reagent was added. Cell viability was measured with an EnVision multilabel plate reader. The IC50 value for cell viability of each compound was calculated with GraphPad Prism (La Jolla, Calif., US).

HCC-1806 cells = experiment: Cell viability, CellTiter-Glo, HCC-1806; type: cell-based; conditions: Homo sapiens, HCC1806; 0.125 μM to 20 μM, CellTiter-Glo; read-out: IC50 cell viability HCC-1806
Protocol: as §1, §2

HCC-1143 cells = experiment: Cell viability, CellTiter-Glo, HCC-1143; type: cell-based; conditions: Homo sapiens, HCC1143; 0.125 μM to 20 μM, CellTiter-Glo; read-out: IC50 cell viability HCC-1143
Protocol: as §1, §2

endogenous CHOP gene = experiment: Endogenous CHOP mRNA by qRT-PCR in HEK293 cells; type: cell-based, human; conditions: 10 μM, 24 h
From the text: The primer sequences used were: Human CHOP: SEQ ID NO: 1 F, 5′-[sequence]-3′ and SEQ ID NO: 2 R, 5′-[sequence]-3′. Human ATF4: SEQ ID NO: 3 F, 5′-[sequence]-3′ and SEQ ID NO: 4 R, 5′-[sequence]-3′. […] Human Cyclophilin A: SEQ ID NO: 7 F, 5′-[sequence]-3′ and SEQ ID NO: 8 R, 5′-[sequence]-3′. Human GAPDH: SEQ ID NO: 9 F, 5′-[sequence]-3′ and SEQ ID NO: 10 R, 5′-[sequence]-3′.

[1] = tested on: CHOP promoter-luciferase (CHOP-Luc) reporter; experiment: CHOP-Luc reporter assay in HEK293 cells (Bright-Glo); type: cell-based, human; conditions: 10 μM, 24 h
Protocol: To identify compounds that activate the expression of CHOP, a HEK293 cell line stably expressing a CHOP-Luc reporter construct that faithfully reflects endogenous CHOP gene expression^21 was used to screen approximately 50,000 structurally diverse small molecules.
HEK293T CHOP-Luc cells were seeded at 7×10^3 cells/well in 384-well plates and treated with 10 μM of the library compounds the next day. After 24 h treatment, the medium was aspirated and 20 μL/well of Bright-Glo luciferase assay reagent was added. Luminescence was measured with an EnVision multilabel plate reader (PerkinElmer, Waltham, Mass., US). Hit selection was based on standard scores. The mean and standard deviation (SD) of luminescence for each compound was determined, and the standard score for each compound was then calculated as (raw measurement of a compound−mean)/SD of the plate. Compounds that increased ATP levels >3 SD compared with control wells (standard score >3) were considered hits.

[2] = tested on: UPRE-Luciferase (UPRE-Luc) reporter; experiment: UPRE-Luc reporter assay in HEK293 cells; type: cell-based, human; conditions: 3d 10 μM or Tm 1 μg/mL, 24 h
Protocol: (§3) FIG. 3G is a graph showing HEK293 cells stably expressing CHOP-Luc, ERSE-Luc, or UPRE-luc reporters were treated with DMSO, a 5-nitrofuran-2-amide derivative, or tunicamycin. HEK293 cells stably expressing CHOP-Luc, ERSE-Luc, or UPRE-luc reporters were treated with DMSO, compound 3d (10 μM), or Tm (1 μg/mL) for 24 h, and luciferase activity was measured using the Bright-Glo assay. Results are the means of 4 replicate wells and are representative of 3 independent experiments.
(§4) The inventor next asked whether the IRE1α and ATF6 branches of the unfolded protein response were also activated by compound 3d treatment of TNBC cells. […] XBP1 mRNA splicing, as measured by XBP1s levels, increased only slightly in the first 24 h after compound 3d treatment of HCC-1806 cells (from 11% of total XBP1 at 0 h to 15˜20% at 2˜24 h). […] Next, it was determined whether compound 3d activates the ATF6 pathway by evaluating its effect on the activity of an ER stress response elements (ERSE)-Luc reporter stably established in HEK293 cell line.
(§5) The HEK293T CHOP reporter cell line (CHOP-Luc) was previously described.^21 HEK293T cells were stably transfected with ERSE-Luciferase^25 and UPRE-Luciferase^23 reporters to generate ERSE-Luc and UPRE-Luc reporter cell lines, respectively. […] Luciferase activity was measured with a Bright-Glo kit 24 h later.

[3] = tested on: XBP1 mRNA splicing (IRE1α pathway); experiment: XBP1 mRNA splicing by RT-PCR in HCC-1806 cells; type: cell-based, human; conditions: HCC-1806, tunicamycin 1 μg/mL, at 8 h
Protocol: FIG. 3E is a graph showing XBP1 mRNA levels in HCC-1806 cells treated with tunicamycin or a 5-nitrofuran-2-amide derivative compound 3d. HCC-1806 cells were treated with compound 3d (10 μM) or tunicamycin (Tm, 1 μg/mL) for the indicated times. XBP1 mRNA levels were analyzed by RT-PCR and the products were resolved by agarose gel electrophoresis. The full-length (unspliced, XBP1u) and spliced (XBP1s) forms of XBP1 mRNA are indicated. GAPDH mRNA was used as an internal control.
The percentage of XBP1s relative to total XBP1 was calculated as: (XBP1s/[XBP1s+XBP1u])×100%. The data shown are representative of 3 independent studies.
as §4, with “line. […]” for “line.”

[4] = tested on: ER stress response elements (ERSE)-Luc reporter; experiment: ERSE-Luc reporter assay in HEK293 cells; type: cell-based, human; conditions: Tm 1 μg/mL, 24 h
Protocol: as §3, §4, §5

| IC50 (HCC-38 cells) | IC50 (HCC-1806 cells) | IC50 (HCC-1143 cells) | Compound | increase of mRNA level of the endogenous CHOP gene (endogenous CHOP gene) | increase of CHOP-Luc reporter activity [1] | increase of UPRE-Luc luciferase activity [2] | XBP1s, percentage of total XBP1 [3] | increase of ERSE-driven luciferase activity [4] |
| --- | --- | --- | --- | --- | --- | --- | --- | --- |
| 8.7 µM | 6.2 µM | 9.5 µM | O=C(Nc1ccc(I)cc1)c1ccc([N+](=O)[O-])o1 [Compound 1, N-(4-iodophenyl)-5-nitrofuran-2-carboxamide] | up to 30 fold | 24 fold |  |  |  |
|  |  |  | tunicamycin [reference compound] |  |  | > 25 fold | ~87% | ~12 fold |
